Here are results for 13 compounds from PubChem BioAssay (NCI).

Some test systems named below: HOP-92 NSCLC; LOX IMVI melanoma; MALME-3M melanoma; NCI-H226 lung; OVCAR-5 ovarian; RPMI-8226 leukemia; SF-268 CNS; SK-MEL-2 melanoma; SK-MEL-28 melanoma; TK-10 renal.
Holding throughout (experiment): growth of human tumour cells (NCI), 48 h

The structures appear in SMILES notation.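 Protocol summary: plate cells (96-well), add compound at 5 concentrations, incubate 48 h, interpolate endpoints linearly. Abbreviation: GI50, concentration required for 50% inhibition of growth. TGI is the concentration that stops growth completely.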 Bounds are passed on as bounds.

Consider `O=C(CN1CCN(c2cc3c(cc2F)c(=O)c(C(=O)O)cn3C2CC2)CC1)Nc1ccc(C(=O)/C=C/c2ccccc2)cc1`, for which the GI50 with HOP-92 NSCLC is 0.431 µM; with LOX IMVI melanoma, 2.32 µM; in the assay with MALME-3M melanoma, 2.89 µM; in the assay on NCI-H226 lung it was 6.83 µM; in the assay on OVCAR-5 ovarian it was 5.35 µM; in the assay with RPMI-8226 leukemia, 2.52 µM. Further, the GI50 in the assay with SF-268 CNS is 4.13 µM; with SK-MEL-2 melanoma, 2.94 µM; in the assay with SK-MEL-28 melanoma it was 18.8 µM; in the assay on TK-10 renal it was 4.19 µM. Further, the TGI in the assay with HOP-92 NSCLC is 3.82 µM; in the assay on LOX IMVI melanoma it was more than 100 µM; in the assay with MALME-3M melanoma it was 8.87 µM; in the assay with NCI-H226 lung, more than 100 µM; with OVCAR-5 ovarian, more than 100 µM; with RPMI-8226 leukemia, 6.73 µM. The TGI is more than 100 µM in the assay with SF-268 CNS, 11.3 µM with SK-MEL-2 melanoma, more than 100 µM with SK-MEL-28 melanoma and more than 100 µM with TK-10 renal.
For `CN(C)/C=C/C(=O)c1cccc(C(=O)/C=C/N(C)C)n1`, the TGI in the assay with HOP-92 NSCLC, in the assay on LOX IMVI melanoma, in the assay with MALME-3M melanoma, in the assay with NCI-H226 lung, with OVCAR-5 ovarian and with RPMI-8226 leukemia was more than 100 µM in each case. For the same compound, the TGI with SF-268 CNS, in the assay on SK-MEL-2 melanoma, in the assay on SK-MEL-28 melanoma and in the assay on TK-10 renal was more than 100 µM each time.
In the case of `Cc1cccc(Cc2cnc(NC(=O)/C=C/c3ccco3)s2)c1`, the GI50 is 8.5 µM in the assay on HOP-92 NSCLC; 0.0683 µM with LOX IMVI melanoma; 0.0484 µM in the assay on MALME-3M melanoma; 0.797 µM with NCI-H226 lung; 0.208 µM in the assay on OVCAR-5 ovarian; 0.0403 µM in the assay on RPMI-8226 leukemia. Moreover, the GI50 with SF-268 CNS was 0.181 µM; in the assay on SK-MEL-2 melanoma, 0.0737 µM; in the assay with SK-MEL-28 melanoma, more than 100 µM; with TK-10 renal it was more than 100 µM. Also, the TGI in the assay on HOP-92 NSCLC was more than 100 µM; in the assay with LOX IMVI melanoma, more than 100 µM; in the assay on MALME-3M melanoma, more than 100 µM; in the assay with NCI-H226 lung it was more than 23.1 µM; with OVCAR-5 ovarian, more than 100 µM; in the assay with RPMI-8226 leukemia, more than 100 µM. In addition, the TGI with SF-268 CNS, in the assay on SK-MEL-2 melanoma, in the assay on SK-MEL-28 melanoma and with TK-10 renal was more than 100 µM in each case.
`CC(=O)O[C@H]1Cc2c([nH]c3ccccc23)[C@@H](c2ccc(Cl)cc2)N1C(=O)CCNC(C)(C)C`: the GI50 with HOP-92 NSCLC is 1.1 µM; in the assay with LOX IMVI melanoma it was 2.43 µM; in the assay with MALME-3M melanoma, 4.26 µM; with NCI-H226 lung, 2.11 µM; with OVCAR-5 ovarian, 4.24 µM; in the assay on RPMI-8226 leukemia it was 2.83 µM. The GI50 is 4.21 µM with SF-268 CNS, 4.93 µM in the assay on SK-MEL-2 melanoma, 4.65 µM in the assay on SK-MEL-28 melanoma and 5.75 µM with TK-10 renal. Besides, the TGI worked out at 5.61 µM in the assay on HOP-92 NSCLC; 6.72 µM with LOX IMVI melanoma; 8.96 µM in the assay on MALME-3M melanoma; 7.15 µM with NCI-H226 lung; 8.54 µM in the assay with OVCAR-5 ovarian; 13.6 µM in the assay on RPMI-8226 leukemia. In addition, the TGI is 9.24 µM in the assay on SF-268 CNS, 9.88 µM in the assay with SK-MEL-2 melanoma, 9.04 µM with SK-MEL-28 melanoma and 10.5 µM in the assay with TK-10 renal.
Regarding `NC(=O)c1ccc(S(=O)(=NS(=O)(=O)c2ccccc2)c2ccc(C(N)=O)cc2)cc1`, the TGI in the assay on HOP-92 NSCLC, in the assay with LOX IMVI melanoma, in the assay with MALME-3M melanoma, in the assay with NCI-H226 lung, with OVCAR-5 ovarian and in the assay on RPMI-8226 leukemia was more than 100 µM in each case. Also, the TGI in the assay on SF-268 CNS, in the assay on SK-MEL-2 melanoma, with SK-MEL-28 melanoma and in the assay on TK-10 renal was more than 100 µM throughout.
Turning to `CCC1C(=O)OCc2c1cc1n(c2=O)Cc2ccccc2-1` (stereo not drawn), the TGI in the assay on HOP-92 NSCLC, in the assay with LOX IMVI melanoma, with MALME-3M melanoma, in the assay with NCI-H226 lung, in the assay with OVCAR-5 ovarian and with RPMI-8226 leukemia was more than 100 µM throughout. For the same compound, the TGI with SF-268 CNS, with SK-MEL-2 melanoma, in the assay on SK-MEL-28 melanoma and with TK-10 renal was more than 100 µM in each case.
Regarding `O=C(O)c1ccccc1/C=C1/Nc2ccccc2C1=O`, the TGI in the assay on HOP-92 NSCLC, in the assay with LOX IMVI melanoma, with MALME-3M melanoma, with NCI-H226 lung, with OVCAR-5 ovarian and with RPMI-8226 leukemia was more than 100 µM each time. In addition, the TGI with SF-268 CNS, in the assay on SK-MEL-2 melanoma, in the assay on SK-MEL-28 melanoma and in the assay with TK-10 renal was more than 100 µM each time.
As to `NC(=S)c1cn(C2OC(CO)C(O)C2O)c2ncnc(N)c12` (stereo not drawn), the GI50 is 0.154 µM with HOP-92 NSCLC; 0.139 µM in the assay with LOX IMVI melanoma; 0.0279 µM with MALME-3M melanoma; 0.602 µM with NCI-H226 lung; 0.353 µM in the assay with OVCAR-5 ovarian; 0.099 µM in the assay with RPMI-8226 leukemia. Moreover, the GI50 was 0.284 µM with SF-268 CNS, 0.175 µM in the assay with SK-MEL-2 melanoma, 0.112 µM in the assay with SK-MEL-28 melanoma and 0.185 µM with TK-10 renal. The TGI in the assay on LOX IMVI melanoma is 2.49 µM; with MALME-3M melanoma, 0.125 µM; in the assay with NCI-H226 lung, more than 21.1 µM; in the assay on RPMI-8226 leukemia, 0.448 µM; in the assay with SF-268 CNS, 3.4 µM; with SK-MEL-2 melanoma, 0.605 µM. Besides, the TGI in the assay on SK-MEL-28 melanoma came out at 0.483 µM; in the assay with TK-10 renal, 0.827 µM.
`Cn1cc(C2=C(c3cn(C)c4cc(Cl)ccc34)C(=O)NC2=O)c2ccccc21`: the GI50 with HOP-92 NSCLC is 0.146 µM; with LOX IMVI melanoma it was 0.198 µM; in the assay with MALME-3M melanoma it was 0.0878 µM; with NCI-H226 lung it was 2.08 µM; with OVCAR-5 ovarian, 0.157 µM; in the assay on RPMI-8226 leukemia, 0.0939 µM. Further, the GI50 was 0.18 µM with SF-268 CNS, 0.212 µM with SK-MEL-2 melanoma, 3.59 µM in the assay on SK-MEL-28 melanoma and 3.81 µM in the assay on TK-10 renal. For the same compound, the TGI with HOP-92 NSCLC was more than 23 µM; in the assay on LOX IMVI melanoma it was more than 25 µM; in the assay with MALME-3M melanoma, 6.99 µM; with NCI-H226 lung, more than 25 µM; in the assay on OVCAR-5 ovarian it was more than 25 µM; in the assay with RPMI-8226 leukemia it was more than 15.2 µM. For the same compound, the TGI in the assay on SF-268 CNS was more than 15.1 µM; with SK-MEL-2 melanoma, more than 25 µM; in the assay with SK-MEL-28 melanoma, more than 25 µM; with TK-10 renal, more than 25 µM.
For the compound `Cn1ccnc1C(=O)/C=C/c1ccc(CC(=O)Nc2cc(F)c(F)c(F)c2)cc1`, the GI50 is 2.59 µM in the assay on HOP-92 NSCLC; 1.03 µM in the assay with LOX IMVI melanoma; 3.65 µM with MALME-3M melanoma; 3.4 µM in the assay on NCI-H226 lung; 3.63 µM in the assay on OVCAR-5 ovarian; 0.795 µM with RPMI-8226 leukemia. For the same compound, the GI50 is 1.78 µM with SF-268 CNS, 4.22 µM with SK-MEL-2 melanoma, 3.64 µM with SK-MEL-28 melanoma and 4.29 µM in the assay with TK-10 renal. Besides, the TGI was determined as 7.44 µM in the assay on HOP-92 NSCLC; 3.79 µM in the assay on LOX IMVI melanoma; 10.8 µM with MALME-3M melanoma; 12.3 µM in the assay with NCI-H226 lung; 9.39 µM in the assay on OVCAR-5 ovarian; 3.54 µM in the assay with RPMI-8226 leukemia. For the same compound, the TGI with SF-268 CNS is 9.57 µM; in the assay with SK-MEL-2 melanoma it was 10.6 µM; in the assay with SK-MEL-28 melanoma, 7.69 µM; with TK-10 renal it was 13.4 µM.
Regarding `N#CC(N)(C(=O)C(=O)NCCCNC(=O)C(=O)C(N)(C#N)c1ccc(Cl)cc1)c1ccc(Cl)cc1` (stereo not drawn), the TGI in the assay on HOP-92 NSCLC, in the assay with LOX IMVI melanoma, in the assay with MALME-3M melanoma, with NCI-H226 lung, with OVCAR-5 ovarian and in the assay on RPMI-8226 leukemia was more than 100 µM each time. In addition, the TGI in the assay on SF-268 CNS, in the assay with SK-MEL-2 melanoma, in the assay on SK-MEL-28 melanoma and in the assay with TK-10 renal was more than 100 µM in each case.
Consider `C/C(CC(=O)Nc1cc(Cl)c(Cl)cc1Cl)=N\NS(=O)(=O)c1ccc(C)cc1`, for which the TGI was 59 µM in the assay on HOP-92 NSCLC; more than 100 µM in the assay with LOX IMVI melanoma; more than 100 µM in the assay on MALME-3M melanoma; 53 µM in the assay on NCI-H226 lung; more than 100 µM in the assay with OVCAR-5 ovarian; 87.2 µM in the assay with RPMI-8226 leukemia. Besides, the TGI in the assay with SF-268 CNS is more than 100 µM; with SK-MEL-2 melanoma it was 86.8 µM; with SK-MEL-28 melanoma it was more than 100 µM; in the assay with TK-10 renal, more than 100 µM.
As for `CCn1c(-c2nonc2N)nc2c(C#CC(C)(C)O)ncc(OCC3CCNCC3)c21`, the GI50 in the assay with HOP-92 NSCLC was more than 25 µM; with LOX IMVI melanoma it was 7.04 µM; in the assay with MALME-3M melanoma, more than 25 µM; in the assay on NCI-H226 lung it was more than 15.2 µM; in the assay with OVCAR-5 ovarian it was more than 25 µM; with RPMI-8226 leukemia it was more than 25 µM. Further, the GI50 in the assay on SF-268 CNS was 9.41 µM; with SK-MEL-2 melanoma, 11.7 µM; in the assay with SK-MEL-28 melanoma, 10 µM; in the assay with TK-10 renal it was 8.28 µM. Besides, the TGI with HOP-92 NSCLC, with LOX IMVI melanoma, with MALME-3M melanoma, with NCI-H226 lung, in the assay on OVCAR-5 ovarian and with RPMI-8226 leukemia was more than 25 µM in each case. For the same compound, the TGI in the assay on SF-268 CNS, in the assay on SK-MEL-2 melanoma, in the assay with SK-MEL-28 melanoma and in the assay on TK-10 renal was more than 25 µM in each case.
